Experimental data reported in PMC7996328, “Design, Synthesis, and Biological Evaluation of a Series of 5- and 7-Hydroxycoumarin Derivatives as 5-HT1A Serotonin Receptor Antagonists” (Pharmaceuticals, 2021).
“Also recorded” adds a separate entry of the source. Read-outs that look alike come from different tables or passages of the source.

Experiments:
5-HT1A receptor [1] = target: T1, 5-HT1A receptor (Rattus norvegicus, UniProt P19327); experiment: G-protein enhancing (agonist) effect at the 5-HT1A receptor; assay type: biochemical
T1 construct: Hippocampal homogenates (15 μg/mL) were added to each tube as the 5-HT1A receptor source; from tissue; host or cells: rat hippocampus (male Sprague-Dawley), membrane homogenate
T1 sequence (P19327 1-422): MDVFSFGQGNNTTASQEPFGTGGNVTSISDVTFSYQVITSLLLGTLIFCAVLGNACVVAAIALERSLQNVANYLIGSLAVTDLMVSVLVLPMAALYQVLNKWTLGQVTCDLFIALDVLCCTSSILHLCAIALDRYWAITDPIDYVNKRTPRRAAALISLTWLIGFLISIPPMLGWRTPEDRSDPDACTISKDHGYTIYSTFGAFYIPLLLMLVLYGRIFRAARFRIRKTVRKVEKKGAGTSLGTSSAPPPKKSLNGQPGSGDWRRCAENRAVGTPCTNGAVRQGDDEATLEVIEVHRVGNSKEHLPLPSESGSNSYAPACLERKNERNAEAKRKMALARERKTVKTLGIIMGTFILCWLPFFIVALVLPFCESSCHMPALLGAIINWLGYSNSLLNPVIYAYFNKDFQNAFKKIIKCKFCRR

5-HT2A receptor = target: T2, 5-HT2A receptor (Rattus norvegicus, UniProt P14842); experiment: 5-HT2A competition binding assay, [3H]ketanserin, frontal cortex homogenates; settings: [3H]ketanserin 1 nM
T2 construct: from tissue; host or cells: rat frontal cortex (male SD), membrane homogenate
Method: Male SD rats were decapitated and their brains removed and placed on ice. Frontal cortices were homogenized with a glass homogenizer in 30 vol ice-cold homogenization buffer (50 mM Tris-HCl. 1 mM EDTA. 5 mM MgCl2. pH 7.4). Next, the homogenate was centrifuged at 20,000× g for 15 min at 4 °C. […] The suspension was again centrifuged at 20,000× g for 15 min at 4 °C. The pellet was resuspended in 10 vol. 50 mM Tris-HCl (pH 7.4) and the centrifugation step was repeated. The final pellet was suspended in 10 vol 50 mM Tris-HCl (pH 7.4) and stored at −80 °C.
Non-specific binding was determined in the presence of 10 μM mianserin. After incubation, the reaction mixture was deposited onto UniFilter-96 GF/B plates with the aid of a FilterMate-96 Harvester. Filter plates were presoaked beforehand with 0.4% PEI for 1 h. Next, each filter well was washed with 1.75 mL of 50 mM Tris-HCl (pH 7.4) and left to dry on a heating block set to 50 °C for 2 h. Then 45 µL of Microscint-20 scintillation fluid was added to each filter well and left to equilibrate overnight. Filter-bound radioactivity was counted in a MicroBeta^2 Microplate Counter. Binding curves were fitted with one site non-linear regression. Affinity was presented as the inhibitory constant (pKi ± SEM and Ki ± SEM) from two or three separate experiments.

5-HT1A receptor [2] = target: T1, 5-HT1A receptor; experiment: Antagonist activity for the 5-HT1A receptor, [35S]GTPγS assay in hippocampal homogenates; assay type: biochemical; settings: 8-OH-DPAT 1.4 × 10^−7 M, mean ± SEM
Method: Male Sprague–Dawley rats were decapitated, their brains removed, and placed on ice. Hippocampi were dissected and homogenized with a glass homogenizer in 30 vol. ice-cold TED buffer (50 mM Tris-HCl, 1 mM EDTA, 1mM dithiotheritol, pH 7.4). Next, the homogenate was centrifuged at 21,000× g for 30 min at 4 °C. […] The suspension was centrifuged again at 21,000× g for 30 min at 4 °C. The pellet was resuspended in 30 vol. TED buffer (pH 7.4) and the centrifugation step was repeated. The final pellet was suspended in 10 vol 50 mM Tris-HCl (pH 7.4) and stored at −80 °C until use.
Serial dilutions of the compounds tested (10^−10–10^−5 M) were incubated in triplicate with 0.8 nM [^35S]GTPγS in assay buffer (50 mM Tris-HCl, pH = 7.4, 1 mM EGTA, 3 mM MgCl2, 100 mM NaCl, 30 µM GDP) and 8-OH-DPAT (final concentration 1.4 × 10^−7 M) in the final assay volume of 250 µL. Hippocampal homogenates (15 μg/mL) were added to each tube as the 5-HT1A receptor source. […] Non-specific binding was determined with 10 µM of unlabeled GTPγS. […] Next, 96-well Unifilter® Plates (Perkin Elmer, Waltham, MA, USA) were presoaked for 1 h with 50 mM Tris-HCl (pH = 7.4) before harvesting. The reaction was terminated by vacuum filtration onto filter plates with the FilterMate Harvester® (Perkin Elmer, Waltham, MA, USA). The samples were then rapidly washed with 2 mL of 50 mM Tris-HCl (pH = 7.4) buffer. Filter plates were dried for 2 h at 50 °C. After drying, 45 µL of EcoScint-20 scintillant (Perkin Elmer) was added to every well. Radioactivity was counted in a Trilux MicroBeta^2 counter (Perkin Elmer). Data were analyzed with GraphPad Prism 5.0 software (GraphPad Software, San Diego, CA, USA, www.graphpad.com). Curves were fitted with a one-site non-linear regression model. Efficacy (Emax) and half maximal inhibitory concentration (IC50) were calculated from the Cheng–Prusoff equation and expressed as means ± SEM.

[3] = read-out: Ki (nM ± SEM) (converted)
[4] = read-out: pKi (M ± SEM) (converted)

T2 sequence (P14842 whole entry): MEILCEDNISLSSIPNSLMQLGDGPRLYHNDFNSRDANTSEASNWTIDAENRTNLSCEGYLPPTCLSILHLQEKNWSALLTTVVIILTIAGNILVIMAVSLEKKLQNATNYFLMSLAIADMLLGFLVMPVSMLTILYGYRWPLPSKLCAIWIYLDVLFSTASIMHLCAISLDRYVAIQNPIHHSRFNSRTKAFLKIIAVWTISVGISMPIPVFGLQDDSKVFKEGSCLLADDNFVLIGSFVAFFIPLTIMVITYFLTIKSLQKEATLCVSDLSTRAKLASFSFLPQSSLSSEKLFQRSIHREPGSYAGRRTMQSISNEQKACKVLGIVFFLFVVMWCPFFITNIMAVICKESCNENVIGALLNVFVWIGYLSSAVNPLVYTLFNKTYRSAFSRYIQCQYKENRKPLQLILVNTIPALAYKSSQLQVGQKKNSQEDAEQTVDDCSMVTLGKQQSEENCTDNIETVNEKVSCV

Row | Compound | Emax (5-HT1A receptor [1]; G-protein enhancing effect, 5-HT1A) [%] | EC50 (5-HT1A receptor [1]; G-protein enhancing effect, 5-HT1A, read-out: EC50 (nM ± SEM)) [nM] | functional character at the 5-HT1A receptor (5-HT1A receptor [1]; in words) | melting point [°C] | Ki (5-HT2A receptor; [3]) [nM] | Ki (5-HT2A receptor; [4]) [nM] | IC50 (5-HT1A receptor [2]) [µM] | EC50 (5-HT1A receptor [2]; antagonistic activity) [nM] | pIC50 ± SEM (5-HT1A receptor [2]) | EC50 (nM ± SEM) (5-HT1A receptor [2]; antagonistic activity)
1 | Cc1cc(OCCN2CCN(c3cccc(F)c3)CC2)c2c(C)cc(=O)oc2c1 [Compound 2e, 5-(2-(4-(3-fluorophenyl)piperazin-1-yl)ethoxy)-4,7-dimethyl-2H-chromen-2-one] | 118 ± 1.48 | 179 ± 39.3 | weak partial agonists | 120 to 122 |  |  |  |  |  | 
2 | COc1cccc(N2CCN(CCOc3cc(C)cc4oc(=O)cc(C)c34)CC2)c1 [Compound 2c, 5-(2-(4-(3-methoxyphenyl)piperazin-1-yl)ethoxy)-4,7-dimethyl-2H-chromen-2-one] |  |  |  | 124 to 125 | 458 ± 109 | 468 | 20 | 19100 |  | 
3 | CC(=O)c1c(OCCCCCN2CCN(c3cccc(Cl)c3Cl)CC2)ccc2c(C)cc(=O)oc12 [Compound 5i, 8-acetyl-7-(5-[4-(2,3-dichlorophenyl)piperazin-1-yl]penthoxy)-4-methylchromen-2-one] |  |  |  | 137 to 139 | 51 ± 8.3 | 63.1 | 63.1 | 55900 |  | 
4 | CC(=O)c1c(C)cc2oc(=O)cc(C)c2c1OCCCCCN1CCN(c2ccccc2F)CC1 [Compound 3b, 6-acetyl-5-(5-(4-(2-fluorophenyl)piperazin-1-yl)pentyloxy)-4,7-dimethyl-2H-chromen-2-one] |  |  |  | 137 to 139 | 1220 ± 166 | 1170 | 20 | 19200 |  | 
5 | CC(=O)c1c(OCCN2CCN(c3cccc(F)c3)CC2)ccc2c(C)cc(=O)oc12 [Compound 6e, 8-acetyl-7-(2-[4-(3-fluorophenyl)piperazin-1-yl]ethoxy)-4-methylchromen-2-one] |  |  |  | 86 to 88 | 1670 ± 274 |  | 100 | 98900 |  | 
6 | COc1ccccc1N1CCN(CCOc2cc(C)cc3oc(=O)cc(C)c23)CC1 [Compound 2a, 5-(2-(4-(2-methoxyphenyl)piperazin-1-yl)ethoxy)-4,7-dimethyl-2H-chromen-2-one] |  |  |  | 146 to 148 | 1710 ± 582 |  | 2 | 1880 ± 427 |  | 
7 | CC(=O)c1c(C)cc2oc(=O)cc(C)c2c1OCCCCCN1CCN(c2cccc(Cl)c2Cl)CC1 [Compound 3i, 6-acetyl-5-(5-(4-(2,3-dichlorophenyl)piperazin-1-yl)pentyloxy)-4,7-dimethyl-2H-chromen-2-one] |  |  |  | 129 to 130 | 486 ± 102 |  | 15.8 | 15400 |  | 
8 | Cc1cc(OCCCCCN2CCN(c3ccccc3Br)CC2)c2c(C)cc(=O)oc2c1 [Compound 1f, 5-(5-(4-(2-bromophenyl)piperazin-1-yl)pentyloxy)-4,7-dimethyl-2H-chromen-2-one] |  |  |  | 143 to 144 | 1550 ± 323 |  | 20 | 20900 |  | 
9 | CC(=O)c1c(OCCN2CCN(c3cccc(Cl)c3Cl)CC2)ccc2c(C)cc(=O)oc12 [Compound 6i, 8-acetyl-7-(2-[4-(2,3-dichlorophenyl)piperazin-1-yl]ethoxy)-4-methylchromen-2-one] |  |  |  | 159 to 161 | 755 ± 178 |  | 200 | 204000 |  | 
10 | CC(=O)c1c(OCCCCCN2CCN(c3ccccc3C#N)CC2)ccc2c(C)cc(=O)oc12 [Compound 5j, 8-acetyl-7-(5-[4-(2-cyanophenyl)piperazin-1-yl]penthoxy)-4-methylchromen-2-one] |  |  |  | 59 to 61 | 2550 ± 765 |  | 15.8 | 13900 |  | 
11 | Cc1cc(C)cc(N2CCN(CCCCCOc3cc(C)cc4oc(=O)cc(C)c34)CC2)c1 [Compound 1h, 5-(5-(4-(3,5-dimethylphenyl)piperazin-1-yl)pentyloxy)-4,7-dimethyl-2H-chromen-2-one] |  |  |  | 104 to 106 | 1820 ± 636 |  | 200 | 198000 |  | 
12 | CC(=O)c1c(C)cc2oc(=O)cc(C)c2c1OCCN1CCN(c2cccc(Cl)c2Cl)CC1 [Compound 4i, 6-acetyl-5-(2-(4-(2,3-dichlorophenyl)piperazin-1-yl)ethoxy)-4,7-dimethyl-2H-chromen-2-one] |  |  |  | 162 to 163 | 1640 ± 344 |  | 3.16 | 3100 ± 148 |  | 
13 | Cc1ccc(C)c(N2CCN(CCOc3cc(C)cc4oc(=O)cc(C)c34)CC2)c1 [Compound 2d, 5-(2-(4-(2,5-dimethylphenyl)piperazin-1-yl)ethoxy)-4,7-dimethyl-2H-chromen-2-one] |  |  |  | 119 to 120 | 7320 ± 2080 | 7410 |  |  | no activity | did not show any activity; also recorded: no activity
14 | Cc1cc(OCCCCCN2CCN(c3cccc(F)c3)CC2)c2c(C)cc(=O)oc2c1 [Compound 1e, 5-(5-(4-(3-fluorophenyl)piperazin-1-yl)pentyloxy)-4,7-dimethyl-2H-chromen-2-one] |  |  |  | 101 to 102 | 2350 ± 673 |  | 25.1 | 24300 |  | 
15 | CC(=O)c1c(OCCCCCN2CCN(c3cc(C)ccc3C)CC2)ccc2c(C)cc(=O)oc12 [Compound 5d, 8-acetyl-7-(5-[4-(2,5-dimethylphenyl)piperazin-1-yl]penthoxy)-4-methylchromen-2-one] |  |  |  | 92 to 94 | 1500 ± 279 |  | 12.6 | 12900 |  | 
16 | CC(=O)c1c(C)cc2oc(=O)cc(C)c2c1OCCCCCN1CCN(c2cccc(Br)c2)CC1 [Compound 3g, 6-acetyl-5-(5-(4-(3-bromophenyl)piperazin-1-yl)pentyloxy)-4,7-dimethyl-2H-chromen-2-one] |  |  |  | 100 to 102 | 664 ± 154 |  | 1.29 | 1280 ± 254 |  | 
17 | CC(=O)c1c(C)cc2oc(=O)cc(C)c2c1OCCN1CCN(c2cccc(Br)c2)CC1 [Compound 4g] |  |  |  | 127 to 128 | 3990 ± 745 |  | 12.6 | 11100 |  | 
18 | CC(=O)c1c(OCCN2CCN(c3ccccc3F)CC2)ccc2c(C)cc(=O)oc12 [Compound 6b, 8-acetyl-7-(2-[4-(2-fluorophenyl)piperazin-1-yl]ethoxy)-4-methylchromen-2-one] |  |  |  | 137 to 139 | 1510 ± 344 |  | 50.1 | 45300 |  | 
19 | CC(=O)c1c(OCCN2CCN(c3cc(C)cc(C)c3)CC2)ccc2c(C)cc(=O)oc12 [Compound 6h, 8-acetyl-7-(2-[4-(3,5-dimethylphenyl)piperazin-1-yl]ethoxy)-4-methylchromen-2-one] |  |  |  | 120 to 121 | 479 ± 96 |  | 50.1 | 47800 |  | 
